Measured values: patent US9937227B2, “Humanin, analogs and cancer treatment methods and uses thereof” (LOS ANGELES BIOMEDICAL RESEARCH INSTITUTE AT HARBOR-UCLA …, priority 2014, dated 2018)
Structures can show the parent of a compound that is named as a salt. Where two headings read alike, the source gives them in different places.

Tests used:
[1] = Table 1; cited from earlier work
male germ cells [2] = test system: male germ cells
testosterone = details: with or without EDS pre-treatment
Leydig cells = experiment: Histology of rat testes: Leydig cells; details: EDS for three days
[3] = test system: germ cells in seminiferous tubules; experiment: DOX-induced germ cell apoptosis in mouse seminiferous tubule cultures ex vivo (TUNEL); type: cell-based; details: 12 hours
Procedure: A total of 15 young adult (12-13 week-old) mice were used for these ex vivo studies. The animals were sacrificed with a 5% pentobarbital (200 mg/Kg) IP injection. Testes were dissected and after removing the tunica albuginea, seminiferous tubules isolated from testes were cut into small segments under a dissecting microscope and light and dark segments were separated by dissection. Ten to twelve segments were placed (2 mm in length) in each well on a six well plate with 2 ml serum free Ham F-10 culture medium (GIBCO, Life Technologies, Thermo Fisher Scientific Corp., Carlsbad, Calif.) with the following treatments: control (Con, n=10), heat (43° C., 15 minutes, used as a positive control, n=10); HN 10 μg/mL (n=9); DOX 10 mcM (Dox10, n=10); and DOX 10 mcM+Humanin 10 μg/mL (Dox10+HN, n=10). For these experiments, n represents the total number of times the treatment was repeated using different animals. After 12 hours of incubation at 34° C. the seminiferous tubules from each treatment group were used to make “squashed” seminiferous tubule samples on a slide for TUNEL (TdT-mediated dUTP nick-end labeling) assay to detect germ cell apoptosis (Erkkila, et al., 1997; Toppari & Parvinen, 1985). To quantify the rate of germ cell apoptosis under a light microscope at 400× magnification, a square grid fitted within the eyepiece provided a reference area of 62,500 μm^2. The TUNEL positive apoptotic germ cells within the frame of grid were counted in 4 segments of seminiferous tubules in each group. The incidence of germ cell apoptosis was expressed as the number of apoptotic germ cells per mm^2.
A total of 15 mice were used for ex vivo studies. The animals were sacrificed and seminiferous tubules isolated from testes were cut into small segments under a dissecting microscope to identify light (early stages I-IV and late stages XI-XII) of the seminiferous epithelium) and dark (middle stages VII-VIII) segments. […] To quantify the rate of germ cell apoptosis, the squashed segments of seminiferous tubules were examined with an American Optical Microscope (Scientific Instruments, Buffalo, N.Y.) with a 40× objective and a 10× eyepiece lens. […] The TUNEL positive apoptotic germ cells within the frame of grid were counted in 4 segments of seminiferous tubules in each group. The incidence of germ cell apoptosis was expressed as the number of apoptotic germ cells per mm^2.

B16 melanoma cells = type: cell-based
Text: Furthermore, the autophagy induction of humanin may be related to its apparent effects of enhancing longevity observed in other systems.

male germ cells [4] = details: testicular cross sections, 24 hours; HN 40 mg/Kg or CP 200 mg/Kg single IP
Procedure: Young adult mice (12-13 weeks) were randomly divided into 4 groups with 4 or 5 mice per group and received an IP injection: control (Con) (saline), HN (40 mg/Kg BW), CP (200 mg/Kg BW), and the combination of CP+HN. These experiments were repeated four times. In the CP+HN group, mice received an injection of HN followed by an injection of CP about 15 minutes later. Twenty-four hours after injections animals were sacrificed using 5% pentobarbital (200 mg/kg BW) IP injection. Blood was collected and one testis was removed, weighed and frozen in liquid nitrogen. The mouse was next perfused with saline and then subsequently perfuse-fixed with Bouin's solution as previously described and apoptosis was assessed by TUNEL assay (Lue, et al., 2009).
For detection of apoptosis in testicular sections, the paraffin embedded testis tissue was cut into 5 micron sections and stained with the TdT-mediated dUTP nick-end labeling assay (TUNEL Apoptosis Detection Kit, Millipore, Billerica, Mass.) to detect apoptosis of germ cells in the testis (Lue, et al., 2009). Testicular sections assayed by TUNEL were examined under a light microscope and the apoptotic germ cells were blindly and manually counted. The seminiferous tubules in the testis section under the microscope were grouped as stages IX-IV (early-late stages of spermatogenesis) and V-VIII (middle stages of spermatogenesis). Germ cell apoptosis was quantified as the number of seminiferous tubules containing apoptotic spermatogonia, spermatoctyes, round spermatids and spermatozoa per 100 seminiferous tubules (Drumond, et al., 2011).

male germ cells [5] = type: in vivo; details: single IP; HN, HN-S7A, HN-C8P, HN-L12A 40 mg/Kg BW; HNG, HNG-F6A 5 mg/Kg BW; 24 hours
Procedure: For the HN analog experiments, male mice were divided into seven groups (n=4-5 per group) and received one of the following treatments and sacrificed after 24 hours: 1) vehicle (control); 2) a single intra-peritoneal (IP) injection of HN peptide [HN, 40 mg/Kg body weight (BW)]; 3) a single IP injection of CP (CP, 200 mg/Kg BW); 4) IP injection of CP and HN (CP+HN); 5) a single IP injection of each HN analog (HNG 5 mg/Kg BW, HNG-F6A 5 mg/Kg BW, HN-S7A 40 mg/Kg BW, HN-C8P 40 mg/Kg BW, or HN-L12A 40 mg/Kg BW); 6) IP injection of CP and each HN analog (CP+HNG, HNG-F6A, HN-S7A, HN-C8P, or HN-L12A); and 7) IP injection of CP+HN+HN analog (HN-S7A, HN-C8P, or HN-L12A; to assess whether the analogs has enhancing or inhibitory effect on HN).
To facilitate testicular fixation by using a whole-body perfusion technique, all animals were injected with heparin (130 IU/100 g BW, IP) 15 min before a lethal injection of sodium pentobarbital (200 mg/kg BW, IP) (Lue Y H, et al., 1999). One testis was removed and weighed after perfusion with saline. Portions of testicular parenchyma were snap frozen in liquid nitrogen, and stored at −80 C for Western blotting. The other testis was fixed by vascular perfusion with Bouin's solution, and processed with routine paraffin embedding for in situ detection of apoptosis.
Detection of apoptotic cells was performed in Bouin's'-fixed, paraffin-embedded testicular sections by the terminal deoxynucleotidyl transferase (TdT)-mediated deoxy-UTP nick end labeling (TUNEL) technique (Sinha Hikim A P, et al., 1997) using an ApopTag-peroxidase kit (Chemicon International, Inc., Temecula, Calif.). Enumeration of the Sertoli cell nuclei with distinct nucleoli and apoptotic germ cell population was quantified at stages I-IV (early stages), stages VII-VIII (middle stages) and stages XI-XII (late stages) of the seminiferous epithelial cycle using an Olympus BH-2 microscope (New Hyde Park, N.Y.). Stages were identified according to the criteria proposed by Russell et al for paraffin sections (Russell L, 1977). The rate of germ cell apoptosis (apoptotic index, AI) was expressed as the number of apoptotic germ cells per Sertoli cells (Sinha Hikim A P, et al., 1997).

male germ cells [6] = type: in vivo, mouse; details: middle stages
Procedure: Onco-infertility is a major concern of cancer survivors. In this study, it was investigated whether HNG will prevent chemotherapy (Temozolomide, TMZ, an alkylating agent used clinically to treat brain tumors) induced male germ cell apoptosis in SCID mice bearing subcutaneous implants of human medulloblastoma. DAOY human pediatric medulloblastoma cells (1.0×10^8 cells/animal) were injected subcutaneously into the right flank of 7-week old male SCID mice. After 3 weeks to allow tumor growth, each group of mice (n=4 to 5/group) received one of the following treatments: 1) vehicle (control); 2) HNG intra-peritoneal (IP) injection (HNG, 5 mg/Kg BW/day, 3 days pretreatment +5 days treatment); 3) TMZ IP injection (TMZ, 50 mg/Kg BW/day×5 days); 4) TMZ and HNG IP injections (TMZ+HNG). Mice were sacrificed 24 hours after the last injection, subcutaneous tumors were dissected and weighed (FIG. 26) and male germ cell apoptosis was assessed by TUNEL staining and quantified (Apoptosis Index, AI, number of apoptotic germ cell/Sertoli cell, FIG. 27). […] HNG ameliorated TMZ-induced germ cell apoptosis without affecting the chemotherapeutic effect on transplanted medulloblastoma tumor in an immunocompromised mouse model.

MAPRGFSALLLLTSEIDLPVKRRA [HN-C8A, HN mutant, Cys8 to Ala]
Cytoprotective Action [1]: Not effective, prevents

CS(=O)(=O)OCCOS(C)(=O)=O [EDS, ethane dimethanesulfonate]
germ cell apoptosis compared to control (male germ cells [2]; early (I-VI) and late (IX-XIV) stages, EDS pre-treated): did not significantly increase | germ cell apoptosis compared to control (male germ cells [2]; middle (VII-VIII) stages, EDS 80 mg/kg pre-treatment): significant acute cytotoxic effects | intratesticular testosterone levels (testosterone): decreased to very low levels | serum testosterone levels (testosterone): decreased to very low levels | Leydig cells in the interstitial spaces compared to control (Leydig cells): depletion of Leydig cells

COc1cccc2c1C(=O)c1c(O)c3c(c(O)c1C2=O)C[C@@](O)(C(=O)CO)C[C@@H]3O[C@H]1C[C@H](N)[C@H](O)[C@H](C)O1 [DOX, doxorubicin hydrochloride]
germ cell apoptosis compared with control ([3]; HN 10 μg/mL alone or DOX 10 μM (high dose) alone, hydrochloride): significantly higher number of apoptotic germ cells | germ cell apoptosis compared with control ([3]; HN 10 μg/mL alone or DOX 10 μM (high dose) alone, listed as doxorubicin, hydrochloride): significantly increased apoptosis | germ cell apoptosis compared with control ([3]; doxorubicin 1 μM (low dose)): increased apoptosis but did not reach statistical difference

Cn1cnc(=N)c2[nH]cnc21 [3-MA]
additive effect of humanin in doxorubicin treated B16 cells, with autophagy inhibitor (B16 melanoma cells): diminished

CC[C@H](C)[C@H](NC(=O)[C@H](CCC(=O)O)NC(=O)[C@H](CO)NC(=O)[C@@H](NC(=O)[C@H](CC(C)C)NC(=O)[C@H](CC(C)C)NC(=O)[C@H](CC(C)C)NC(=O)[C@H](CC(C)C)NC(=O)[C@H](CS)NC(=O)[C@H](CO)NC(=O)[C@H](Cc1ccccc1)NC(=O)CNC(=O)[C@H](CCCNC(=N)N)NC(=O)[C@@H]1CCCN1C(=O)[C@H](C)NC(=O)[C@@H](N)CCSC)[C@@H](C)O)C(=O)N[C@@H](CC(=O)O)C(=O)N[C@@H](CC(C)C)C(=O)N1CCC[C@H]1C(=O)N[C@H](C(=O)N[C@@H](CCCCN)C(=O)N[C@@H](CCCNC(=N)N)C(=O)N[C@@H](CCCNC(=N)N)C(=O)N[C@@H](C)C(=O)O)C(C)C [HN]
germ cell apoptosis compared with control ([3]; HN 10 μg/mL alone or DOX 10 μM (high dose) alone): no significant effect | germ cell apoptosis compared to control (male germ cells [4]): no significant effect | spontaneous germ cell apoptosis, peptide alone (male germ cells [5]): did not change | intratesticular testosterone levels (testosterone): no significant effects | serum testosterone levels (testosterone): no significant effects

Cn1nnc2c(C(N)=O)ncn2c1=O [TMZ, Temozolomide]
Apoptosis Index (AI, apoptotic germ cell/Sertoli cell) (male germ cells [6]): 0.058±0.006

CCN(CC)CCCC(C)Nc1ccnc2cc(Cl)ccc12 (stereo not drawn) [chloroquine]
additive effect of humanin in doxorubicin treated B16 cells, with autophagy inhibitor (B16 melanoma cells): diminished

MAPRGASCLLLLTSEIDLPVKRRA [HN-F6A]
Cytoprotective Action [1]: Similar/more effective
